Patent publication US10363252B2, “Treatment of prostate cancer using hedgehog pathway inhibitors” (HEDGEPATH PHARMACEUTICALS, INC., priority 2013, dated 2019)

Experiments:
[1] = tested on: HhP; details: major metabolite of itraconazole; cited from earlier work
[2] = plasma trough level of itraconazole required for clinical benefit in humans with cancer; type: in vivo, human
Description: In particular, the minimum plasma trough level after 4 weeks of therapy required to have a clinically significant effect was at least 1000 ng/ml. Achieving these levels of itraconazole is enhanced by the use of formulations with greater bioavailability such as SUBA-CAP™ formulation. […] These side effects associated with these high doses of itraconazole can be effectively managed by giving a selective mineralocorticoid antagonist, such as eplerenone. Accordingly, in some embodiments, the method further comprises administering eplerenone or other mineralocorticoid inhibitor.

Row | concentration at 4 weeks ([2]; human, plasma, after 4 weeks of therapy, humans with cancer, read-out: minimum plasma trough level required to have a clinically significant effect) | Molecule | potency as a HhP inhibitor relative to itraconazole [1] | side-effects peculiar to high doses ([2]; high doses of itraconazole)
1 |  | hydroxy-itraconazole | not equipotent | 
2 | ≥ 1 µg/mL | CCC(C)n1ncn(-c2ccc(N3CCN(c4ccc(OCC5COC(Cn6cncn6)(c6ccc(Cl)cc6Cl)O5)cc4)CC3)cc2)c1=O (stereo not drawn) [itraconazole] |  | hypertension, peripheral edema, and hypokalemia
